Data taken from patent US6992169B2, “Carrier based drug delivery system” (Cyclacel Limited, priority 1998, dated 2006).
Each block holds one compound with its values, some of them ahead of it. Where no end group is shown, it is not given here.

Legend:
[1] = Serum stability of peptide vectors; conditions: for half-life: bovine, serum
Experimental: Test compounds were dissolved in cell-conditioned tissue culture medium (10% FCS in DMEM) at concentrations varying from 1 to 40 μM. The solutions were incubated at 37° C. and samples were withdrawn at intervals. After filtration, aliquots were analysed by RP-HPLC (using a photodiode array UV detector). Intact vectors were identified by reference to chromatograms obtained with authentic peptides and by DE MALDI-TOF analysis of appropriate peak fractions. […] The latter was chosen preferentially in order to replicate the conditions used for cytotoxicity assays on cell cultures.

[2] = molecular target: purified recombinant human topoisomerase II (Homo sapiens, UniProt P11388); test: Topoisomerase II inhibition assay (cleavage and relaxation); assay type: biochemical; conditions: test compound at 1 mM, 100 μM, or 10 μM; plasmid DNA, agarose gel
Experimental: Topoisomerase II assay—Plasmid DNA (0.3 μg) was incubated at 37° C. with 4 units of purified recombinant human topoisomerase II in cleavage buffer (30 mM Tris.HCl, pH 7.6, 60 mM NaCl, 3 mM ATP, 15 mM mercaptoethanol, 8 mM MgCl2) with or without the addition of test compound (at 1 mM, 100 μM, or 10 μM final concentration). Reactions were stopped by the immediate addition of SDS (1% w/v final). Samples were treated with proteinase K (30 min at 37° C.) and extracted twice with an equal volume of […] CHCl3/i-amyl alcohol. […] Topoisomerase II inhibition was judged by the production of linear plasmid DNA, representing trapped cleavage intermediate, and by the ratio of substrate (spercoiled DNA) to product (relaxed DNA). A relaxation assay was performed identically, except that the reaction buffer was optimised for the detection of catalysis rather than cleavage, i.e. only 2 units of enzyme were used per sample. The reaction buffer was 50 mM Tris.HCl, pH 8, 120 mM KCl, 0.5 mM ATP, 0.5 mM dithiothreitol, 10 mM MgCl2. Topoisomerase II inhibition was judged by the ratio of substrate (supercoiled DNA) to product (relaxed DNA).

[3] = Serum stability of drug-ester linkages; assay type: in vitro ADME; conditions: bovine, 10% FCS in DMEM, 1 to 40 μM, 37° C., appearance of free drug, read-out: Serum t1/2 of Drug-Linker Ester bond
Experimental: Hydrolysis of the ester bonds between the drug hydroxy groups and the linker carboxyl groups was assessed by appearance of free podophyllotoxin or paclitaxel.

HL60 cells = test: Intracellular stability; assay type: in vitro ADME; conditions: 15 μM for 1 h, washed, 1 additional h neat medium
Experimental: After the incubation, cells were washed extensively with PBS until no test compound was detectable in the washes. Cells were incubated for one additional h with neat medium. Afterwards the cells were pelleted, resuspended in 50 mM Tris pH 7.5, containing a cocktail of protease inhibitors and they were solubilised by ultrasonication for 1 min. The insoluble fraction was pelleted for 15 min using an Eppendorf centrifuge and the supernatant was analysed by anal. RP-HPLC (0-60% MeCN gradient, λ=254 nm).

A2780Cis^R = test: Carcinoma cell line panel, SRB-assay; conditions: Homo sapiens, A2780cisR, 96 h, read-out: 96-h IC50 cytotoxicity
Experimental: (§1) After incubation for 96 h, cytotoxicity was assessed using a standard SRB-assay.

A2780 = test: Carcinoma cell line panel, SRB-assay; conditions: Homo sapiens, A2780, 96 h, read-out: 96-h IC50 cytotoxicity
Experimental: as §1

BE = test: Carcinoma cell line panel, SRB-assay; conditions: 96 h, read-out: 96-h IC50 cytotoxicity
Experimental: as §1

CH1Dox^R = test: Carcinoma cell line panel, SRB-assay; conditions: 96 h, read-out: 96-h IC50 cytotoxicity
Experimental: as §1

CH1Taxol^R = test: Carcinoma cell line panel, SRB-assay; conditions: 96 h, read-out: 96-h IC50 cytotoxicity
Experimental: as §1

CH1 = test: Carcinoma cell line panel, SRB-assay; conditions: Homo sapiens, CH1, 96 h, read-out: 96-h IC50 cytotoxicity
Experimental: as §1

COLO205 = test: Carcinoma cell line panel, SRB-assay; conditions: Homo sapiens, COLO 205, 96 h, read-out: 96-h IC50 cytotoxicity
Experimental: as §1

DLD-1 = test: Carcinoma cell line panel, SRB-assay; conditions: Homo sapiens, DLD-1, 96 h, read-out: 96-h IC50 cytotoxicity
Experimental: as §1

HCT116 = test: Carcinoma cell line panel, SRB-assay; conditions: Homo sapiens, HCT-116, 96 h, read-out: 96-h IC50 cytotoxicity
Experimental: as §1

HT29 = test: Carcinoma cell line panel, SRB-assay; conditions: Homo sapiens, HT-29, 96 h, read-out: 96-h IC50 cytotoxicity
Experimental: as §1

KM12 = test: Carcinoma cell line panel, SRB-assay; conditions: Homo sapiens, KM12, 96 h, read-out: 96-h IC50 cytotoxicity
Experimental: as §1

LIM1215 = test: Carcinoma cell line panel, SRB-assay; conditions: LIM1215, 96 h, read-out: 96-h IC50 cytotoxicity
Experimental: as §1

LS174T = test: Carcinoma cell line panel, SRB-assay; conditions: Homo sapiens, 96 h, read-out: 96-h IC50 cytotoxicity
Experimental: as §1

SKOV-3 = test: Carcinoma cell line panel, SRB-assay; conditions: Homo sapiens, SK-OV-3, 96 h, read-out: 96-h IC50 cytotoxicity
Experimental: as §1

A549 lung carcinoma = test: Cytotoxic activity, MTT-assay; assay type: cell-based; conditions: Homo sapiens
Experimental: (§2) Assay procedure—Cells were seeded into 96-well plates at 2,500 cells per well in DMED, containing 10% FCS and antibiotics. After overnight incubation, test compounds were prepared as dilution series in cell medium (addition of dimethylsulfoxide in the case of free paclitaxel to effect partial dissolution) and were added to the cells. For the 1-h exposure samples, incubation was continued for 1 h, cell culture medium supernatants were removed and the wells were further washed with cell culture medium (5×2 min). Total viable cells were quantitated after a total of 72 h incubation using a standard MTT-assay.

MCF7 breast carcinoma = test: Cytotoxic activity, MTT-assay; assay type: cell-based; conditions: Homo sapiens
Experimental: as §2

Chain of purified recombinant human topoisomerase II (P11388 whole entry): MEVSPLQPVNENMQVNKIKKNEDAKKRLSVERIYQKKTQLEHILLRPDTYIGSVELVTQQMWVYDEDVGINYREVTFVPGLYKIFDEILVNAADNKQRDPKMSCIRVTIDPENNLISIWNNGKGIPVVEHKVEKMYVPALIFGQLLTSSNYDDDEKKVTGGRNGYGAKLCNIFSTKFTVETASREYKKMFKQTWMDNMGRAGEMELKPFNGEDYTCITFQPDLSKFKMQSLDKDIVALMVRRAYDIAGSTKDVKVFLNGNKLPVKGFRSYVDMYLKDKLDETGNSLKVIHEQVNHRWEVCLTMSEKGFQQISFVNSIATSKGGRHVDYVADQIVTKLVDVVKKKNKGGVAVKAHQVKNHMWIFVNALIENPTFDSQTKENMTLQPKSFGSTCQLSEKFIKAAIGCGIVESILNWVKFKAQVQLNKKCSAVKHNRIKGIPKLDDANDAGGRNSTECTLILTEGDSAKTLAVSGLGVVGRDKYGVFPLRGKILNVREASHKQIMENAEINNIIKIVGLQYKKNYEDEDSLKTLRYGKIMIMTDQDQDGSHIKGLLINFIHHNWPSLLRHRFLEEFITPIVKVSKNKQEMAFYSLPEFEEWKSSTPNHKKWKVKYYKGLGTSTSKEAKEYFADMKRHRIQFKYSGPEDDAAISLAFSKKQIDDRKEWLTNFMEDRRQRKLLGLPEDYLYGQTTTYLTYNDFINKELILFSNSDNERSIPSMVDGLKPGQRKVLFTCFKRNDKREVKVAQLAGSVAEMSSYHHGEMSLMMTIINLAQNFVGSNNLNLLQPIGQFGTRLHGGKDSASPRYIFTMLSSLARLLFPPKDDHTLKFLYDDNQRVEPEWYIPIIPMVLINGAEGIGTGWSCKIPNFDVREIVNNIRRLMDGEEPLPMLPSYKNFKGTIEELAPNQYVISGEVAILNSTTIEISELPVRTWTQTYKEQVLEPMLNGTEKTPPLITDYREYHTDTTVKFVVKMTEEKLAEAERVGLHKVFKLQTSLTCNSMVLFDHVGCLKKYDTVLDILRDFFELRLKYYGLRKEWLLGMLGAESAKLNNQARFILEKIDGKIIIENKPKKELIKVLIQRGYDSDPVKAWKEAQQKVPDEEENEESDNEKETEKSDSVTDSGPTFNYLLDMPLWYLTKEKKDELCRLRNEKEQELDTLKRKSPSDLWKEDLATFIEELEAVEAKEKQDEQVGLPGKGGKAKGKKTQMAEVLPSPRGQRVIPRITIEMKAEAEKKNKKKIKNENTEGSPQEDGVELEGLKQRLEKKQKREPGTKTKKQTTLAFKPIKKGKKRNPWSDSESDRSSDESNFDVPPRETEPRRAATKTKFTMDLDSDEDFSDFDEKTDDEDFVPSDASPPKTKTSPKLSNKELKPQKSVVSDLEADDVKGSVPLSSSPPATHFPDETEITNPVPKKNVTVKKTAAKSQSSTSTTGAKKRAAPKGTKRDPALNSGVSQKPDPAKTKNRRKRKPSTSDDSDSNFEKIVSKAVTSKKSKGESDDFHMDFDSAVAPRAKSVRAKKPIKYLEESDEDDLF

Compound: CC[C@H](C)[C@H](NC(=O)[C@H](CCCCN)NC(=O)[C@@H](NC(=O)[C@H](CCC(N)=O)NC(=O)[C@@H](N)CCCNC(=N)N)[C@@H](C)CC)C(=O)N[C@@H](Cc1c[nH]c2ccccc12)C(=O)N[C@@H](Cc1ccccc1)C(=O)N[C@@H](CCC(N)=O)C(=O)N[C@@H](CC(N)=O)C(=O)N[C@@H](CCCNC(=N)N)C(=O)N[C@@H](CCCNC(=N)N)C(=O)N[C@@H](CCSC)C(=O)N[C@@H](CCCCN)C(=O)N[C@@H](Cc1c[nH]c2ccccc12)C(=O)N[C@@H](CCCCN)C(=O)N[C@@H](CCCCN)C(N)=O
- half-life [1]: > 12 h

Compound: 4′-Demethyl-4-[4″-aminoanilino-(succinimidopropionoyl)-(H-Cys-βAla-Arg-Arg-Met-Lys-Trp-Lys-Lys-NH2)]epipodophyllotoxin
- Activity observed [2]: I

Compound: CC[C@H](C)[C@H](NC(=O)[C@H](CCCCN)NC(=O)[C@@H](NC(=O)[C@H](CCC(N)=O)NC(=O)[C@H](CCCNC(=N)N)NC(=O)[C@@H](N)CSC1CC(=O)N(CCC(=O)O[C@@H](C(=O)O[C@H]2C[C@@]3(O)[C@@H](OC(=O)c4ccccc4)[C@@H]4[C@]5(OC(C)=O)CO[C@@H]5C[C@H](O)[C@@]4(C)C(=O)[C@H](OC(C)=O)C(=C2C)C3(C)C)[C@@H](NC(=O)c2ccccc2)c2ccccc2)C1=O)[C@@H](C)CC)C(=O)N[C@@H](Cc1c[nH]c2ccccc12)C(=O)N[C@@H](Cc1ccccc1)C(=O)N[C@@H](CCC(N)=O)C(=O)N[C@@H](CC(N)=O)C(=O)N[C@@H](CCCNC(=N)N)C(=O)N[C@@H](CCCNC(=N)N)C(=O)N[C@@H](CCSC)C(=O)N[C@@H](CCCCN)C(=O)N[C@@H](Cc1c[nH]c2ccccc12)C(=O)N[C@@H](CCCCN)C(=O)N[C@@H](CCCCN)C(N)=O (single isomer, unassigned) [C]
- half-life ([3]; cell-conditioned tissue culture medium (FCS in DMEM)): > 12 h

Compound: COc1cc([C@@H]2c3cc4c(cc3[C@@H](Nc3ccc(N)cc3)[C@H]3COC(=O)[C@H]23)OCO4)cc(OC)c1O [4′-Demethyl-4-(4″-aminoanilino)epipodophyllotoxin]
- Activity observed [2]: I

Compound: CCC(C)[C@H](NC(=O)[C@H](CCCCN)NC(=O)[C@@H](NC(=O)[C@H](CCC(N)=O)NC(=O)[C@H](CCCNC(=N)N)NC(=O)[C@@H](N)CSC1CC(=O)N(CCC(=O)O[C@H]2c3cc4c(cc3[C@@H](c3cc(OC)c(OC)c(OC)c3)[C@H]3C(=O)OC[C@@H]32)OCO4)C1=O)C(C)CC)C(=O)N[C@@H](Cc1c[nH]c2ccccc12)C(=O)N[C@@H](Cc1ccccc1)C(=O)N[C@@H](CCC(N)=O)C(=O)N[C@@H](CC(N)=O)C(=O)N[C@@H](CCCNC(=N)N)C(=O)N[C@@H](CCCNC(=N)N)C(=O)N[C@@H](CCSC)C(=O)N[C@@H](CCCCN)C(=O)N[C@@H](Cc1c[nH]c2ccccc12)C(=O)N[C@@H](CCCCN)C(=O)N[C@@H](CCCCN)C(N)=O (stereo partly shown) [A]
- Intact test compound in supernatant of solubilised cells (HL60 cells; RP-HPLC and MALDI-TOF MS): Intact test compound was identified
- Test compound in DMSO extracts of pellets (HL60 cells; insoluble fraction): no test compound was detected
- half-life [3]: > 24 h

Compound: CCC(C)[C@H](NC(=O)[C@H](CCCCN)NC(=O)[C@@H](NC(=O)[C@H](CCC(N)=O)NC(=O)[C@H](CCCNC(=N)N)NC(=O)[C@@H](N)CSCC(=O)O[C@H]1c2cc3c(cc2[C@@H](c2cc(OC)c(OC)c(OC)c2)[C@H]2C(=O)OC[C@@H]21)OCO3)C(C)CC)C(=O)N[C@@H](Cc1c[nH]c2ccccc12)C(=O)N[C@@H](Cc1ccccc1)C(=O)N[C@@H](CCC(N)=O)C(=O)N[C@@H](CC(N)=O)C(=O)N[C@@H](CCCNC(=N)N)C(=O)N[C@@H](CCCNC(=N)N)C(=O)N[C@@H](CCSC)C(=O)N[C@@H](CCCCN)C(=O)N[C@@H](Cc1c[nH]c2ccccc12)C(=O)N[C@@H](CCCCN)C(=O)N[C@@H](CCCCN)C(=O)O (stereo partly shown) [B]
- half-life [3]: 0.667 h

Compound: COc1cc([C@@H]2c3cc4c(cc3[C@@H](O[C@@H]3O[C@@H]5CO[C@@H](C)O[C@H]5[C@H](O)[C@H]3O)[C@H]3COC(=O)[C@H]23)OCO4)cc(OC)c1O [Etoposide]
- IC50 (A2780Cis^R): 680 nM
- IC50 (A2780): 210 nM
- IC50 (BE): 1100 nM
- IC50 (CH1Dox^R): 6600 nM
- IC50 (CH1Taxol^R): 145 nM
- IC50 (CH1): 165 nM
- IC50 (COLO205): 800 nM
- IC50 (DLD-1): 570 nM
- IC50 (HCT116): 1900 nM
- IC50 (HT29): 2600 nM
- IC50 (KM12): 580 nM
- IC50 (LIM1215): 330 nM
- IC50 (LS174T): 460 nM
- IC50 (SKOV-3): 13000 nM

- half-life [1]: > 24 h
Compound: CC[C@@H](C)[C@@H](NC(=O)[C@@H](CCCCN)NC(=O)[C@H](NC(=O)[C@@H](CCC(N)=O)NC(=O)[C@H](N)CCCNC(=N)N)[C@H](C)CC)C(=O)N[C@H](Cc1c[nH]c2ccccc12)C(=O)N[C@H](Cc1ccccc1)C(=O)N[C@H](CCC(N)=O)C(=O)N[C@H](CC(N)=O)C(=O)N[C@H](CCCNC(=N)N)C(=O)N[C@H](CCCNC(=N)N)C(=O)N[C@H](CCSC)C(=O)N[C@H](CCCCN)C(=O)N[C@H](Cc1c[nH]c2ccccc12)C(=O)N[C@H](CCCCN)C(=O)N[C@H](CCCCN)C(N)=O [H-D-Arg-D-Gln-D-Ile-D-Lys-D-Ile-D-Trp-D-Phe-D-Gln-D-Asn-D-Arg-D-Arg-D-Met-D-Lys-D-Trp-D-Lys-D-Lys-NH3]

Compound: CC(=O)O[C@H]1C(=O)[C@@]2(C)[C@H]([C@H](OC(=O)c3ccccc3)[C@]3(O)C[C@H](OC(=O)[C@H](O)[C@@H](NC(=O)c4ccccc4)c4ccccc4)C(C)=C1C3(C)C)[C@]1(OC(C)=O)CO[C@@H]1C[C@@H]2O [Paclitaxel]
- IC50 (A549 lung carcinoma; 72 h, A549, Exposure time 3 d): < 15 nM
- IC50 (A549 lung carcinoma; A549, Exposure time 1 h, then washed, viable cells after total 72 h): 28 nM
- IC50 (MCF7 breast carcinoma; 72 h, MCF7, Exposure time 3 d): < 15 nM
- IC50 (MCF7 breast carcinoma; MCF7, Exposure time 1 h, then washed, viable cells after total 72 h): 40 nM
- IC50 (A2780Cis^R): 5.1 nM
- IC50 (A2780): < 2.5 nM
- IC50 (BE): < 2.5 nM
- IC50 (CH1Dox^R): 540 nM
- IC50 (CH1Taxol^R): 5.8 nM
- IC50 (CH1): 4.15 nM
- IC50 (COLO205): 2.6 nM
- IC50 (DLD-1): 54 nM
- IC50 (HCT116): < 2.5 nM
- IC50 (HT29): < 2.5 nM
- IC50 (KM12): 2.85 nM
- IC50 (LIM1215): 5.8 nM
- IC50 (LS174T): 8.5 nM
- IC50 (SKOV-3): 10 nM

Compound: H-RRMKWKK-NH2 [H-Arg-Arg-Met-Lys-Trp-Lys-Lys-NH2]
- half-life [1]: 3 h

Compound: RQIKIWFQNRRMKWK [15mer peptide]
- Serum stability of vector in words [1]: survive for several h
